The text below walks through data of patent US8962608B2, “Cycloalkylnitrile pyrazole carboxamides as janus kinase inhibitors” (Merck Sharp & Dohme Corp., priority 2011, dated 2015).

The assay has as its target JAK1 (recombinant purified GST-tagged catalytic domain) (Homo sapiens (Human), UniProt P23458). The assay is described as follows: biochemical.
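Note: biochemical assay with HTRF read-out.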

Sequence of JAK1 (recombinant purified GST-tagged catalytic domain) (P23458 875-1153): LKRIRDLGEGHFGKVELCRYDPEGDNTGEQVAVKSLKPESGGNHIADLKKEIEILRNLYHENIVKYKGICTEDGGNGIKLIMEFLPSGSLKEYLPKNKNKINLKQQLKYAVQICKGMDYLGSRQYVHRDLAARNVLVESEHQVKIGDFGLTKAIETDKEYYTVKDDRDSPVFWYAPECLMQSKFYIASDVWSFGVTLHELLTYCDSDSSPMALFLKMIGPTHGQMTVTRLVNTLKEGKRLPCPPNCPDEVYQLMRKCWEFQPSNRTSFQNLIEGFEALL

In the case of `N#C[C@@H]1CCCC[C@H]1n1cc(C(N)=O)c(Nc2ccc(F)nc2)n1` (single isomer, unassigned) [Example 17-23, 1-[(1R,2R or 1S,2S)-2-cyanocyclohexyl]-3-[(6-fluoropyridin-3-yl)amino]-1H-pyrazole-4-carboxamide], the half-maximal inhibitory concentration (IC50) stood at 11 nM.

`C[C@H](N[C@H]1CC[C@H](n2cc(C(N)=O)c(Nc3ccc(OC(F)F)nc3)n2)[C@@H](C#N)C1)C1CC1` (single isomer, unassigned) [Example 28-32, 1-[(1S,2S,4S or 1R,2R,4R)-2-cyano-4-{[(1S)-1-cyclopropylethyl]amino}cyclo-hexyl]-3-{[6-(difluoromethoxy)pyridin-3-yl]amino}-1H-pyrazole-4-carboxamide]: the IC50 came to 5 nM.

With `N#C[C@H]1CCCC[C@@H]1n1cc(C(N)=O)c(Nc2ccc(C(F)(F)F)cc2)n1` (single isomer, unassigned) [Example 17-105, 1-[(1S,2S or 1R,2R)-2-cyanocyclohexyl]-3-{[4-(trifluoromethyl)phenyl]amino}-1H-pyrazole-4-carboxamide], the IC50 stood at 2 nM.

Turning to `C[C@H]1C[C@H](C)N1[C@@H]1CC[C@H](n2cc(C(N)=O)c(Nc3ccc(C(F)(F)F)cc3)n2)[C@@H](C#N)C1` (single isomer, unassigned) [Example 28-20, 1-{(1S,2S,4R or 1R,2R,4S)-2-cyano-4-[(2S,4S or 2R,4R)-2,4-dimethylazetidin-1-yl]cyclohexyl}-3-{[4-(trifluoromethyl)phenyl]amino}-1H-pyrazole-4-carboxamide], the IC50 turned out to be 5 nM.

Regarding `N#C[C@H]1CCCCC1n1cc(C(N)=O)c(Nc2ccc(S(=O)(=O)CC(F)(F)F)cc2)n1` (mixture of isomers) [Example 17-12, 1-[(1S,2S and 1R,2R)-2-cyanocyclohexyl]-3-({4-[(2,2,2-trifluoroethyl)sulfonyl]phenyl}amino)-1H-pyrazole-4-carboxamide], the IC50 stood at 0.49 nM.

Turning to `N#C[C@H]1C[C@@H](C(=O)N2CCC(F)(F)C2)CC[C@@H]1n1cc(C(N)=O)c(Nc2ccc(Cl)cc2)n1` (single isomer, unassigned) [Example 35-28, 3-[(4-chlorophenyl)amino]-1-{(1S,2S,4S or 1R,2R,4R)-2-cyano-4-[(3,3-difluoropyrrolidin-1-yl)carbonyl]cyclohexyl}-1H-pyrazole-4-carboxamide], the IC50 came to 3 nM.

As for `CN(C)[C@H]1CC[C@H](n2cc(C(N)=O)c(Nc3ccc(OC(F)F)cc3)n2)[C@@H](C#N)C1` (single isomer, unassigned) [Example 28-104, 1-[(1S,2S,4S or 1R,2R,4R)-2-cyano-4-(dimethylamino)cyclohexyl]-3-{[4-(difluoromethoxy)phenyl]amino}-1H-pyrazole-4-carboxamide], the IC50 is 0.4 nM.

Turning to `CC1(CNC(=O)[C@H]2CC[C@H](n3cc(C(N)=O)c(Nc4ccc(Cl)cc4)n3)[C@@H](C#N)C2)COC1` (single isomer, unassigned) [Example 35-31, 3-[(4-chlorophenyl)amino]-1-[(1S,2S,4S or 1R,2R,4R)-2-cyano-4-{[(3-methyloxetan-3-yl)methyl]carbamoyl}cyclohexyl]-1H-pyrazole-4-carboxamide], the half-inhibitory concentration (IC50) is 9 nM.

Turning to `N#C[C@H]1CCCC[C@@H]1n1cc(C(N)=O)c(Nc2ccc(OC(F)F)cc2)n1` (single isomer, unassigned) [Example 17-103, 1-[(1S,2S or 1R,2R)-2-cyanocyclohexyl]-3-{[4-(difluoromethoxy)phenyl]amino}-1H-pyrazole-4-carboxamide], the IC50 was determined as 0.7 nM.

As for `C=C[C@]1(O)CC[C@H](n2cc(C(N)=O)c(Nc3ccc(Cl)cc3)n2)[C@@H](C#N)C1` (single isomer, unassigned) [Example 32-5, 3-[(4-chlorophenyl)amino]-1-[(1S,2S,4S or 1R,2R,4R)-2-cyano-4-ethenyl-4-hydroxycyclohexyl]-1H-pyrazole-4-carboxamide], the IC50 came to 3 nM.

On to `N#C[C@H]1C[C@H](N2CC(O)C2)CC[C@@H]1n1cc(C(N)=O)c(Nc2ccc(S(=O)(=O)C(F)(F)F)cc2)n1` (single isomer, unassigned) [Example 28-150, 1-[(1S,2S,4R or 1R,2R,4S)-2-cyano-4-(3-hydroxyazetidin-1-yl)cyclohexyl]-3-({4-[(trifluoro-methyl)sulfonyl]phenyl}amino)-1H-pyrazole-4-carboxamide], for which the IC50 was found to be 0.3 nM.

For `CC(C)NS(=O)(=O)c1ccc(Nc2nn([C@H]3CCCC[C@@H]3C#N)cc2C(N)=O)cc1` (single isomer, unassigned) [Example 17-93, 1-[(1R,2R or 1S,2S)-2-cyanocyclohexyl]-3-({4-[(1-methylethyl)sulfamoyl]phenyl}amino)-1H-pyrazole-4-carboxamide], the concentration for half-maximal inhibition (IC50) was determined as 0.3 nM.

In the case of `C=C[C@@]1(O)CC[C@H](n2cc(C(N)=O)c(Nc3ccc(Cl)cc3)n2)[C@@H](C#N)C1` (single isomer, unassigned) [Example 32-16, 3-[(4-chlorophenyl)amino]-1-[(1S,2S,4R or 1R,2R,4S)-2-cyano-4-ethenyl-4-hydroxycyclohexyl]-1H-pyrazole-4-carboxamide], the IC50 worked out at 0.85 nM.

`CNC1CCC(n2cc(C(N)=O)c(Nc3ccc(S(=O)(=O)C(F)(F)F)cc3)n2)[C@@H](C#N)C1` (mixture of isomers) [Example 27-6, 1-[(1S,2S and 1R,2R)-2-cyano-4-(methylamino)cyclohexyl]-3-({4-[(trifluoromethyl)sulfonyl]phenyl}amino)-1H-pyrazole-4-carboxamide]: the IC50 was 0.08 nM.

On to `C[C@]1(O)CC[C@H](n2cc(C(N)=O)c(Nc3ccc(Cl)cc3)n2)[C@@H](C#N)C1` (single isomer, unassigned) [Example 32-10, 3-[(4-chlorophenyl)amino]-1-[(1S,2S,4S or 1R,2R,4R)-2-cyano-4-hydroxy-4-methylcyclohexyl]-1H-pyrazole-4-carboxamide], for which the IC50 amounted to 1 nM.

In the case of `N#C[C@H]1C[C@@H](O)CC[C@@H]1n1cc(C(N)=O)c(Nc2ccc(Cl)c(F)c2)n1` (single isomer, unassigned) [Example 33-3, 3-[(4-chloro-3-fluorophenyl)amino]-1-[(1S,2S,4S or 1R,2R,4R)-2-cyano-4-hydroxycyclohexyl]-1H-pyrazole-4-carboxamide], the half-inhibitory concentration (IC50) is 2 nM.

As to `CN(C)[C@@H]1CC[C@H](n2cc(C(N)=O)c(Nc3ccc(Cl)cc3)n2)[C@@H](C#N)C1` (single isomer, unassigned) [Example 28-125, 3-[(4-chlorophenyl)amino]-1-[(1S,2S,4R or 1R,2R,4S)-2-cyano-4-(dimethylamino)cyclohexyl]-1H-pyrazole-4-carboxamide], the IC50 was found to be 2 nM.

Consider `N#C[C@H]1C[C@@H](N2CC(O)(C(F)(F)F)C2)CC[C@@H]1n1cc(C(N)=O)c(Nc2ccc(C(F)(F)F)cc2)n1` (single isomer, unassigned) [Example 28-200, 1-{(1S,2S,4S or 1R,2R,4R)-2-cyano-4-[3-hydroxy-3-(trifluoromethyl)azetidin-1-yl]cyclohexyl}-3-{[4-(trifluoromethyl)phenyl]amino}-nvrazole-4-carboxamide], for which the half-inhibitory concentration (IC50) came out at 1 nM.

Consider `CC(C)(CF)c1ccc(Nc2nn([C@H]3CC[C@@H](O)C[C@@H]3C#N)cc2C(N)=O)cc1` (single isomer, unassigned) [Example 25-9, 1-[(1S,2S,4R or 1R,2R,4S)-2-cyano-4-hydroxycyclohexyl]-3-{[4-(2-fluoro-1,1-dimethylethyl)phenyl]amino}-1H-pyrazole-4-carboxamide], for which the concentration for half-maximal inhibition (IC50) was 1 nM.

In general, IC50 refers to the midpoint of a concentration-inhibition curve.
